Results: ChEMBL document CHEMBL1144677, “Novel quinazolinone derivatives as 5-HT7 receptor ligands” (Bioorg Med Chem, 2008)

How the values were obtained:
[1] = molecular target: T1, 5-hydroxytryptamine receptor 1A (Homo sapiens, UniProt P08908)
T1 sequence (P08908 whole entry): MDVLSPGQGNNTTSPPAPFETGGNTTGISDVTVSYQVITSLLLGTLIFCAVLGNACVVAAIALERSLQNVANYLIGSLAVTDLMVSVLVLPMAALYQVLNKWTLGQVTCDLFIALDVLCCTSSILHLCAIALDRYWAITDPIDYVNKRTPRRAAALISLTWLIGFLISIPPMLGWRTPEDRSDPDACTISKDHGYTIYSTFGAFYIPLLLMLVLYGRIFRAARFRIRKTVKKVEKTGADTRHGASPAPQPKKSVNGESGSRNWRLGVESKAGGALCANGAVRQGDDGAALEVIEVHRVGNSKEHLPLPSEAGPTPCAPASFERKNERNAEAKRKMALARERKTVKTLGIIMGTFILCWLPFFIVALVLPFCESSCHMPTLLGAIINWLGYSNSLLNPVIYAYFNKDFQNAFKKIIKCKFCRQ
Description: Binding affinity at 5HT1A receptor

D(2) dopamine receptor = D(2) dopamine receptor (Homo sapiens, UniProt P14416)
Description: Binding affinity at dopamine D2 receptor

[2] = molecular target: T2, 5-hydroxytryptamine receptor 2C (Homo sapiens, UniProt P28335)
T2 sequence (P28335 whole entry): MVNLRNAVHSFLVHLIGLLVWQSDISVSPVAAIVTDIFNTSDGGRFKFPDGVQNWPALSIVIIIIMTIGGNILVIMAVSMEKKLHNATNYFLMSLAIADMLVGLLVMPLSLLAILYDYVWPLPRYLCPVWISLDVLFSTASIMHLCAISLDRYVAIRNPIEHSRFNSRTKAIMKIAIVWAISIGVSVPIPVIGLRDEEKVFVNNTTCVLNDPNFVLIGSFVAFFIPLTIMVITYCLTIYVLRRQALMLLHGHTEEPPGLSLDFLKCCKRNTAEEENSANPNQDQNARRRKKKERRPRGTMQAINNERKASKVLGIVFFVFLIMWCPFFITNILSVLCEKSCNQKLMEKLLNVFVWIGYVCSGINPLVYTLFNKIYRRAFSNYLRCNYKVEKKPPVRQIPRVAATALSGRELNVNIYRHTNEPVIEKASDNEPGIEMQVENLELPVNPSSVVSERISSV
Description: Binding affinity at 5HT2C receptor

[3] = molecular target: 5-hydroxytryptamine receptor 2A (Homo sapiens, UniProt P28223)
5-hydroxytryptamine receptor 2A, sequence (P28223 whole entry): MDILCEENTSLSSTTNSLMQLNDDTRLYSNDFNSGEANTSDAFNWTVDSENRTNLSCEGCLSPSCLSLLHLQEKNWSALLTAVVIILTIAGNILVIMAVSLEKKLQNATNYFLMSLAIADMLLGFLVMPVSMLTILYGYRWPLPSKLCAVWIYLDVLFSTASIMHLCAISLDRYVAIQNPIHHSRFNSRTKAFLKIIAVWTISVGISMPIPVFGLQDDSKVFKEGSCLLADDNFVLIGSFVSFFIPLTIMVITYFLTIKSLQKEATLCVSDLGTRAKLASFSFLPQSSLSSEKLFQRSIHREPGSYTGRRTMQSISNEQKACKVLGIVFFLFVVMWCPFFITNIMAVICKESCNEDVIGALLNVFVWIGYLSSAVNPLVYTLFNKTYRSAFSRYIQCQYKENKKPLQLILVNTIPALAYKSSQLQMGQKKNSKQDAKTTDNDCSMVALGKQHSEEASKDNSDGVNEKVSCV
Description: Binding affinity at 5HT2A receptor

D(2) dopamine receptor, sequence (P14416 whole entry): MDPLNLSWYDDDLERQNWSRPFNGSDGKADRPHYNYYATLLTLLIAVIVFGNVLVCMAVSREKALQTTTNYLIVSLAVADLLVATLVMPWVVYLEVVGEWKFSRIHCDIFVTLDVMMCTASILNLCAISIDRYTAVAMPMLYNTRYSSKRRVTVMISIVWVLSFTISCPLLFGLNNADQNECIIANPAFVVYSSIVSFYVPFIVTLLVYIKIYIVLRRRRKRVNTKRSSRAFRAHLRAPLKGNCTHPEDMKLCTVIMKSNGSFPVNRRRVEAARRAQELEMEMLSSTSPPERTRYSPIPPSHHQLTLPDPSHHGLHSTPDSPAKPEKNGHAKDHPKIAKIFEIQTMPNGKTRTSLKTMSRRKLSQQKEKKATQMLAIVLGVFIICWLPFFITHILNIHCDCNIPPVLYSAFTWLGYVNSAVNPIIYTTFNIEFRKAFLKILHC

IC50 [1]	IC50 (D(2) dopamine receptor)	IC50 [2]	IC50 [3]	SMILES
220 nM	4000 nM	80 nM	420 nM	Cc1cccc(N2CCN(CCCC(=O)NCc3nc4ccc(F)cc4c(=O)n3-c3ccccc3)CC2)c1C
500 nM	6900 nM		1100 nM	Cc1cccc(N2CCN(CCCC(=O)NCc3nc4ccccc4c(=O)n3-c3ccccc3)CC2)c1C
140 nM	6600 nM	1300 nM	620 nM	O=C(CCCN1CCN(c2cccc(C(F)(F)F)c2)CC1)NCc1nc2cc(F)ccc2c(=O)n1-c1ccccc1
960 nM	5300 nM	220 nM	> 10000 nM	COc1ccccc1N1CCN(CCCC(=O)NCc2nc3ccc(F)cc3c(=O)n2-c2ccccc2)CC1
500 nM	1000 nM	1600 nM	> 10000 nM	CCOc1ccccc1N1CCN(CCCC(=O)NCc2nc3ccc(F)cc3c(=O)n2-c2ccccc2)CC1
